In article PMC8067507, “Aryl Urea Based Scaffolds for Multitarget Drug Discovery in Anticancer Immunotherapies” (Pharmaceuticals, 2021):

How the values were obtained:
[1] = tested on: A549 (pulmonary adenocarcinoma); assay: Cell proliferation assay (MTT); format: cell-based; conditions: Homo sapiens, A549, 48 h, 2 days incubation, average ± SD of three experiments
Description: (§1) The ability of Ureas 13–33 to inhibit cell proliferation was established by means of their IC50 values towards the human tumor cell lines HT-29 (colon adenocarcinoma), MCF-7 (breast adenocarcinoma), HeLa (epithelioid cervix carcinoma) and A549 (pulmonary adenocarcinoma), as well as towards the endothelial cell line HMEC-1 (human microvascular endothelial cells) and the non-tumor cell line HEK-293 (human embryonic kidney cells).
(§2) HT-29, MCF-7, HeLa, A549 and HEK-293 cell lines were maintained in Dulbecco’s modified Eagle’s medium (DMEM) containing glucose (1 g/L), glutamine (2 mM), penicillin (50 μg/mL), streptomycin (50 μg/mL), and amphotericin B (1.25 μg/mL), supplemented with 10% FBS. HMEC-1 cell line was maintained in Dulbecco’s modified Eagle’s medium (DMEM)/low glucose containing glutamine (2 mM), penicillin (50 μg/mL), streptomycin (50 μg/mL), and amphotericin B (1.25 μg/mL), supplemented with 10% FBS. For the development of tube formation assays in Matrigel, HMEC-1 cells were cultured in EGM-2MV Medium supplemented with EGM-2MV SingleQuots.
(§3) In 96-well plates, 3 × 10^3 (HeLa, A549, HMEC-1, HEK-293) or 5 × 10^3 (HT-29, MCF-7) cells per well were incubated with serial dilutions of the tested compounds in a total volume of 100 μL of their respective growth media. The 3-(4,5-dimethylthiazol-2-yl)-2,5-diphenyltetrazolium bromide (MTT; Sigma Chemical Co.) dye reduction assay in 96-well microplates was used. After 2 days of incubation (37 °C, 5% CO2 in a humid atmosphere), 10 μL of MTT (5 mg/mL in phosphate-buffered saline, PBS) was added to each well, and the plate was incubated for a further 3 h (37 °C). After that, the supernatant was discarded and replaced by 100 µL of DMSO to dissolve formazan crystals. The absorbance was then read at 540 nm by spectrophotometry. For all concentrations of compound, cell viability was expressed as the percentage of the ratio between the mean absorbance of treated cells and the mean absorbance of untreated cells. Three independent experiments were performed, and the IC50 values (i.e., concentration half inhibiting cell proliferation) were graphically determined using GraphPad Prism 4 software.

[2] = tested on: HEK-293 (human embryonic kidney cells); assay: Cell proliferation assay (MTT); format: cell-based; conditions: HEK293, 48 h, 2 days incubation, average ± SD of three experiments
Description: as §1, §2, §3

[3] = tested on: HMEC-1 (human microvascular endothelial cells); assay: Cell proliferation assay (MTT); format: cell-based; conditions: HMEC-1, 48 h, 2 days incubation, average ± SD of three experiments
Description: as §1, §2, §3

[4] = tested on: HT-29 (colon adenocarcinoma); assay: Cell proliferation assay (MTT); format: cell-based; conditions: Homo sapiens, HT-29, 48 h, 2 days incubation, average ± SD of three experiments
Description: as §1, §2, §3

[5] = tested on: HeLa (epithelioid cervix carcinoma); assay: Cell proliferation assay (MTT); format: cell-based; conditions: Homo sapiens, 48 h, 2 days incubation, average ± SD of three experiments
Description: as §1, §2, §3

[6] = tested on: MCF-7 (breast adenocarcinoma); assay: Cell proliferation assay (MTT); format: cell-based; conditions: Homo sapiens, MCF7, 48 h, 2 days incubation, average ± SD of three experiments
Description: as §1, §2, §3

PD-L1 [7] = biological target: T1, PD-L1 (Homo sapiens, UniProt Q9NZQ7); assay: PD-L1 quantification by flow cytometry in HT-29; format: cell-based; conditions: HT-29, 10 μM, 24 h, referred to control (DMSO)
Experimental: (§4) We evaluated the effect of the selected compounds on PD-L1 and on c-Myc proteins by flow cytometry after 24 h treatment at 10 μM concentration of compounds. Both, PD-L1 and c-Myc were relatively determined using DMSO treated cells as a negative control and BMS-8 as a positive one.
(§5) For the detection of total PD-L1 and c-Myc, cancer cells were seeded (3 × 10^5 cells/well) in 6-well plates and were incubated with the corresponding compounds for 24 h. Then they were collected, fixed, treated with 0.5% Triton^TM X-100 and stained with Alexa Fluor® 647 Rabbit monoclonal Anti-PD-L1 (ab215251) and FITC Rabbit monoclonal anti-c-Myc (ab223913).
(§6) We also checked results performing ELISA tests. For ELISA tests, lysates were collected, protein quantification was carried out by Bradford test and, then, PD-L1 and c-Myc were quantified using Human PD-L1 ELISA Kit 28-8 (ab214565) and c-Myc (Total) Human ELISA Kit (KHO2041), respectively, according to the manufacturer’s instructions.

c-Myc [8] = assay: c-Myc quantification by flow cytometry in HT-29; format: cell-based, human; conditions: HT-29, 10 μM, 24 h, referred to control (DMSO)
Experimental: as §4, §5, §6

c-Myc [9] = assay: c-Myc quantification by flow cytometry in A-549; format: cell-based, human; conditions: A-549, 10 μM, 24 h, referred to control (DMSO)
Experimental: as §4, §5, §6

PD-L1 [10] = biological target: T1, PD-L1; assay: PD-L1 quantification by flow cytometry in A-549; format: cell-based; set-up: endogenous in cells; host or cells: A-549 cancer cells; conditions: A-549, 10 μM, 24 h, referred to control (DMSO)
Experimental: as §4, §5, §6

VEGFR-2 [11] = biological target: T2, VEGFR-2 (Homo sapiens, UniProt P35968); assay: VEGFR-2 quantification by flow cytometry in HMEC-1; format: cell-based; set-up: Both membrane and total VEGFR-2 were relatively determined using dimethyl sulfoxide (DMSO) treated cells as a negative control; endogenous in cells; host or cells: HMEC-1 (human microvascular endothelial cells); conditions: 10 µM, 24 h, relative to DMSO control
Experimental: (§7) We performed the study on both a HT-29 cancer cell line and a human microvessel endothelial cell line (HMEC-1). […] The effect of these selected derivatives on VEGFR-2, on HT-29 tumor cell line and on human microvessel endothelial cells (HMEC) was determined by flow cytometry technique. […] For these assays, cells were incubated for 24 h in the presence of the corresponding compounds at 10 µM concentration.

VEGFR-2 [12] = biological target: T2, VEGFR-2; assay: VEGFR-2 quantification by flow cytometry in HT-29; format: cell-based; set-up: Both membrane and total VEGFR-2 were relatively determined using dimethyl sulfoxide (DMSO) treated cells as a negative control; endogenous in cells; host or cells: HT-29 (colon adenocarcinoma) and HMEC-1 (human microvascular endothelial cells); conditions: HT-29, 10 µM, 24 h, relative to DMSO control
Experimental: as §7

T2 sequence (P35968 20-1356): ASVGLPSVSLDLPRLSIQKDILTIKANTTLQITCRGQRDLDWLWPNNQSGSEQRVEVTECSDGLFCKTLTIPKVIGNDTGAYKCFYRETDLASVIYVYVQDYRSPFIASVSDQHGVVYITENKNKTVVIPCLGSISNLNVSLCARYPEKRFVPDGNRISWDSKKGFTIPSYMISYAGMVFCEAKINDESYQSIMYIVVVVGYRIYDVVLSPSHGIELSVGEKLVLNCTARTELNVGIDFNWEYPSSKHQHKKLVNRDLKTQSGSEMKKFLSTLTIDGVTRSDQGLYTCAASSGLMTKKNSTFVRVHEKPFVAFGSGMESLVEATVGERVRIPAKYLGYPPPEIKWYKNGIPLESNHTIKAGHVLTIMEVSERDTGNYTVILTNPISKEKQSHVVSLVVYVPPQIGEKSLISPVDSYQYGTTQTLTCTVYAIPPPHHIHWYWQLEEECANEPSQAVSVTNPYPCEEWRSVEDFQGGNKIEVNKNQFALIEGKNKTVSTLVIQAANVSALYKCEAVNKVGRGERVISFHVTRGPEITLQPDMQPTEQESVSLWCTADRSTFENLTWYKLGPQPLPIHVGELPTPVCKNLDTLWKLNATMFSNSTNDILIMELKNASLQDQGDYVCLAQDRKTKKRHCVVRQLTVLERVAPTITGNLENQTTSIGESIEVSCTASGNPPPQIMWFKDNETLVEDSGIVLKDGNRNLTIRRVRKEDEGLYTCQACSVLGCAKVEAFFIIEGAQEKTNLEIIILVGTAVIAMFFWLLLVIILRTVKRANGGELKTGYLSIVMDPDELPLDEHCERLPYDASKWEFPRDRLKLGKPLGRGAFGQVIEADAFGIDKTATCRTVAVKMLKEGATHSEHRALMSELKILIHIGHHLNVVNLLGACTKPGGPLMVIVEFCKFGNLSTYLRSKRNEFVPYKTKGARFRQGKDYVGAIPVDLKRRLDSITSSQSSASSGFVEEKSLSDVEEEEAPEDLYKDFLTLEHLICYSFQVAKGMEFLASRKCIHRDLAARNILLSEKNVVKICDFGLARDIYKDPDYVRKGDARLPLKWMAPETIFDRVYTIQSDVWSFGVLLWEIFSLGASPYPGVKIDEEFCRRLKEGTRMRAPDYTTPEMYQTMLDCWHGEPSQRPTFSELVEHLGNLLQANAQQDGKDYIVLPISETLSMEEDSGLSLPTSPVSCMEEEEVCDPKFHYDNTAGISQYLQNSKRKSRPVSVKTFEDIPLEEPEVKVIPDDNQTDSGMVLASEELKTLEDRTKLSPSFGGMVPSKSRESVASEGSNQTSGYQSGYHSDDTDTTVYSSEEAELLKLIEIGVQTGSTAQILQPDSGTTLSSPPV
T1 sequence (Q9NZQ7 19-290): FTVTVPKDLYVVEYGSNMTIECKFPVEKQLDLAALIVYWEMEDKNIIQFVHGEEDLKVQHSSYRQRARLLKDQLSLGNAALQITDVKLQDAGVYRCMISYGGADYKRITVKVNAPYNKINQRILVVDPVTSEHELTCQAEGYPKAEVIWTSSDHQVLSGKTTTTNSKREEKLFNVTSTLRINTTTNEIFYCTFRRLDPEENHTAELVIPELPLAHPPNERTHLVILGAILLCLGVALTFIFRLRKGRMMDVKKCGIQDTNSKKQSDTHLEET

| SMILES | IC50 [1] | IC50 [4] | IC50 [5] | IC50 [6] | PD-L1 (%) relative expression (PD-L1 [7]) | PD-L1 (%) relative expression (PD-L1 [10]) | Membrane VEGFR-2 (%) (VEGFR-2 [11]) | Total VEGFR-2 (%) (VEGFR-2 [11]) | Membrane VEGFR-2 (%) (VEGFR-2 [12]) | Total VEGFR-2 (%) (VEGFR-2 [12]) | IC50 [2] | IC50 [3] | c-Myc (%) relative expression (c-Myc [8]) | c-Myc (%) relative expression (c-Myc [9]) |
| --- | --- | --- | --- | --- | --- | --- | --- | --- | --- | --- | --- | --- | --- | --- |
| COc1ccc(/C=C\c2cccc(NC(=O)Nc3ccccc3)c2)cc1 [Compound 13] | 34 ± 2 µM | 24 ± 5 µM | 32 ± 8 µM | 30 ± 7 µM |  |  |  |  |  |  | 16 ± 3 µM | 40 ± 5 µM |  |  |
| COc1ccc(/C=C\c2cccc(NC(=O)Nc3ccccc3Br)c2)cc1 [Compound 14] | 32 ± 14 µM | 17 ± 2 µM | 26 ± 3 µM | 25 ± 10 µM |  |  |  |  |  |  | 25 ± 3 µM | 14 ± 2 µM |  |  |
| COc1ccc(/C=C\c2cccc(NC(=O)Nc3ccccc3OC)c2)cc1 [Compound 17] | 18 ± 1 µM | 15 ± 1 µM | 15 ± 2 µM | 15 ± 1 µM | 60 ± 12% | 79 ± 9% | 99 ± 7% | 97 ± 9% | 47 ± 16% | 98 ± 12% | 27 ± 5 µM | 10 ± 1 µM | 58 ± 13% | 45± 9% |
| COc1ccc(/C=C\c2cccc(NC(=O)Nc3cccc(OC)c3)c2)cc1 [Compound 18] | 23 ± 8 µM | 17 ± 4 µM | 24 ± 5 µM | 19 ± 2 µM |  |  |  |  |  |  | 16 ± 3 µM | 4.3 ± 0.3 µM |  |  |
| COc1ccc(CCc2cccc(NC(=O)Nc3ccccc3)c2)cc1 [Compound 27] | 12 ± 5 µM | 9.6 ± 0.6 µM | 10 ± 2 µM | 12.8 ± 0.9 µM |  |  |  |  |  |  | 12.5 ± 0.2 µM | 9 ± 4 µM |  |  |
| COc1ccc(CCc2cccc(NC(=O)Nc3cccc(Br)c3)c2)cc1 [Compound 29] | 13 ± 3 µM | 11 ± 2 µM | 10.7 ± 0.5 µM | 10 ± 4 µM |  |  |  |  |  |  | 7.2 ± 0.4 µM | 3.8 ± 0.3 µM |  |  |
| COc1ccc(CCc2cccc(NC(=O)Nc3ccccc3OC)c2)cc1 [Compound 31] | 24 ± 5 µM | 57 ± 6 µM | 24 ± 2 µM | 10 ± 5 µM |  |  |  |  |  |  | 13.8 ± 0.8 µM | > 100 µM |  |  |
| COc1ccc(CCc2cccc(NC(=O)Nc3cccc(OC)c3)c2)cc1 [Compound 32] | 18 ± 3 µM | 22 ± 2 µM | 27 ± 1 µM | 25 ± 4 µM | 55 ± 11% | 59 ± 9% | 69 ± 8% | 98 ± 13% | 76 ± 5% | 93 ± 10% | 9.7 ± 0.8 µM | 7.1 ± 0.8 µM | 69 ± 7% | 77 ± 15% |

Continued, in another order:

| IC50 [1] | IC50 [4] | IC50 [5] | IC50 [6] | PD-L1 (%) relative expression (PD-L1 [7]) | PD-L1 (%) relative expression (PD-L1 [10]) | Membrane VEGFR-2 (%) (VEGFR-2 [11]) | Total VEGFR-2 (%) (VEGFR-2 [11]) | Membrane VEGFR-2 (%) (VEGFR-2 [12]) | Total VEGFR-2 (%) (VEGFR-2 [12]) | SMILES | IC50 [2] | IC50 [3] | c-Myc (%) relative expression (c-Myc [8]) | c-Myc (%) relative expression (c-Myc [9]) |
| --- | --- | --- | --- | --- | --- | --- | --- | --- | --- | --- | --- | --- | --- | --- |
| 12 ± 2 µM | 14 ± 3 µM | 5 ± 2 µM | 8 ± 3 µM | 36 ± 9% | 98 ± 10% | 98 ± 8% | 99 ± 16% | 88 ± 14% | 97 ± 7% | COc1ccc(/C=C\c2cccc(NC(=O)Nc3ccc(OC)cc3)c2)cc1 [Compound 19] | 10 ± 1 µM | 11 ± 1 µM | 47 ± 8% | 79 ± 10% |
| 1.6 ± 0.3 µM | 2.5 ± 0.8 µM | 42 ± 8 µM | 2.3 ± 0.9 µM |  |  |  |  |  |  | COc1ccc(/C=C/c2cccc(NC(=O)Nc3ccccc3)c2)cc1 [Compound 20] | 15 ± 2 µM | 4 ± 1 µM |  |  |
| 3 ± 1 µM | 1.6 ± 0.2 µM | 1.7 ± 0.4 µM | 1.6 ± 0.3 µM |  |  |  |  |  |  | COc1ccc(/C=C/c2cccc(NC(=O)Nc3ccccc3Br)c2)cc1 [Compound 21] | 2 ± 0.2 µM | 1.9 ± 0.4 µM |  |  |
| 4 ± 3 µM | 0.5 ± 0.2 µM | 1.5 ± 0.3 µM | 0.6 ± 0.3 µM |  |  |  |  |  |  | COc1ccc(/C=C/c2cccc(NC(=O)Nc3cccc(Br)c3)c2)cc1 [Compound 22] | 0.7 ± 0.3 µM | 1.1 ± 0.2 µM |  |  |
| 11 ± 5 µM | 11 ± 4 µM | 9 ± 4 µM | 3.6 ± 0.6 µM |  |  |  |  |  |  | COc1ccc(/C=C/c2cccc(NC(=O)Nc3ccccc3OC)c2)cc1 [Compound 24] | 3.5 ± 0.8 µM | 7.2 ± 0.6 µM |  |  |
| 2.2 ± 0.7 µM | 1.3 ± 0.5 µM | 7 ± 0.5 µM | 1.1 ± 0.2 µM | 69 ± 11% | 59 ± 8% | 59 ± 8% | 96 ± 9% | 99 ± 11% | 94 ± 7% | COc1ccc(/C=C/c2cccc(NC(=O)Nc3cccc(OC)c3)c2)cc1 [Compound 25] | 4 ± 2 µM | 4.3 ± 0.4 µM | 74 ± 11% | 68 ± 9% |
| 7 ± 4 µM | 7.9 ± 0.5 µM | 4 ± 3 µM | 5 ± 4 µM |  |  |  |  |  |  | COc1ccc(CCc2cccc(NC(=O)Nc3ccccc3Br)c2)cc1 [Compound 28] | 1.7 ± 0.2 µM | 5 ± 3 µM |  |  |
| 11 ± 5 µM | 4.9 ± 0.8 µM | 3.7 ± 0.3 µM | 4 ± 2 µM |  |  |  |  |  |  | COc1ccc(CCc2cccc(NC(=O)Nc3ccc(Br)cc3)c2)cc1 [Compound 30] | 1.3 ± 0.5 µM | 1.3 ± 0.1 µM |  |  |
